Source: patent publication US20230398130A1, “METHODS AND COMPOSITIONS FOR DIFFERENTIATING STEM CELLS” (Massachusetts Institute of Technology, priority 2020, published 2023)

Columns and labels:
ISC-enriched organoids [1] = assay: Primary screen, 384-well 2.5-D organoid differentiation (ENR+CD, 6 days, Target Selective Inhibitor Library, vs whole-plate median): ATP (CellTiter-Glo 3D, CTG); settings: primary screen; for Dose.FC.CTG: FC vs plate median; for SSMD.CTG: strictly standardized mean difference
ISC-enriched organoids [2] = assay: Primary screen, 384-well 2.5-D organoid differentiation (ENR+CD, 6 days): carbachol-induced lysozyme secretion (LYZ.S); format: cell-based, murine; settings: primary screen; for Dose.FC.LYZ.S: FC vs plate median; for Z.LYZ.S: standard z score; for SSMD.LYZ.S: strictly standardized mean difference
Source text: (§1) High-throughput screening.

ISC-enriched organoids [3] = assay: Primary screen, 384-well 2.5-D organoid differentiation (ENR+CD, 6 days): basal lysozyme secretion (LYZ.NS); format: cell-based, murine; settings: primary screen; for Dose.FC.LYZ.NS: FC vs plate median; for SSMD.LYZ.NS: strictly standardized mean difference
Source text: as §1

[4] = Dose 10.00 uM, standard z score
[5] = 1st of the 4 dose lines of the treatment (dose not given)
[6] = 2nd of the 4 dose lines of the treatment (dose not given)
[7] = 3rd of the 4 dose lines of the treatment (dose not given)
[8] = 4th of the 4 dose lines of the treatment (dose not given)
[9] = dose 0.08 uM, standard z score of FC
[10] = dose 0.40 uM, standard z score of FC
[11] = dose 2.00 uM, standard z score of FC
[12] = dose 10.00 uM, standard z score of FC

SMILES | Dose.FC.CTG (ISC-enriched organoids [1]; Dose 0.08 uM) [log 2 fold change] | Z.CTG (ISC-enriched organoids [1]; Dose 0.08 uM, standard z score) | Dose.FC.CTG (ISC-enriched organoids [1]; Dose 0.40 uM) [log 2 fold change] | Z.CTG (ISC-enriched organoids [1]; Dose 0.40 uM, standard z score) | Dose.FC.CTG (ISC-enriched organoids [1]; Dose 2.00 uM) [log 2 fold change] | Z.CTG (ISC-enriched organoids [1]; Dose 2.00 uM, standard z score) | Dose.FC.CTG (ISC-enriched organoids [1]; Dose 10.00 uM) [log 2 fold change] | Z.CTG (ISC-enriched organoids [1]; [4]) | Dose.FC.LYZ.S (ISC-enriched organoids [2]; Dose 0.08 uM) [log 2 fold change] | Dose.FC.LYZ.S (ISC-enriched organoids [2]; Dose 0.40 uM) [log 2 fold change] | Dose.FC.LYZ.S (ISC-enriched organoids [2]; Dose 2.00 uM) [log 2 fold change] | Dose.FC.LYZ.S (ISC-enriched organoids [2]; Dose 10.00 uM) [log 2 fold change] | Dose.FC.LYZ.NS (ISC-enriched organoids [3]; Dose 0.08 uM) [log 2 fold change] | Z.LYZ.NS (ISC-enriched organoids [3]; Dose 0.08 uM, standard z score) | Dose.FC.LYZ.NS (ISC-enriched organoids [3]; Dose 0.40 uM) [log 2 fold change] | Z.LYZ.NS (ISC-enriched organoids [3]; Dose 0.40 uM, standard z score) | Dose.FC.LYZ.NS (ISC-enriched organoids [3]; Dose 2.00 uM) [log 2 fold change] | Z.LYZ.NS (ISC-enriched organoids [3]; Dose 2.00 uM, standard z score) | Dose.FC.LYZ.NS (ISC-enriched organoids [3]; Dose 10.00 uM) [log 2 fold change] | Z.LYZ.NS (ISC-enriched organoids [3]; [4]) | further results
CC(C)c1noc(N2CCC(COc3ccc(-c4ccc(S(C)(=O)=O)cc4)nc3)CC2)n1 [GSK1292263] | 0.161 | 0.384 | 0.192 | 0.458 | 0.224 | 0.535 | 0.196 | 0.468 | 0.111 | 0.101 | 0.060 | 0.027 | 0.078 | 0.681 | 0.050 | 0.434 | 0.028 | 0.240 | 0.020 | 0.173 | –
Cc1ccc(NCCCc2ccccc2)c(N)c1 [JSH-23] | 0.193 | 0.462 | 0.230 | 0.548 | 0.074 | 0.176 | 0.046 | 0.110 | 0.164 | 0.106 | 0.005 | −0.026 | 0.054 | 0.474 | 0.079 | 0.688 | −0.002 | −0.017 | −0.046 | −0.399 | SSMD.CTG (ISC-enriched organoids [1]; [5]): 0.462; SSMD.CTG (ISC-enriched organoids [1]; [6]): 0.536; SSMD.CTG (ISC-enriched organoids [1]; [7]): 0.179; SSMD.CTG (ISC-enriched organoids [1]; [8]): 0.139; Z.LYZ.S (ISC-enriched organoids [2]; [5]): 1.064; Z.LYZ.S (ISC-enriched organoids [2]; [6]): 0.686; Z.LYZ.S (ISC-enriched organoids [2]; [7]): 0.032; Z.LYZ.S (ISC-enriched organoids [2]; [8]): −0.171; SSMD.LYZ.S (ISC-enriched organoids [2]; [5]): 1.259; SSMD.LYZ.S (ISC-enriched organoids [2]; [6]): 0.611; SSMD.LYZ.S (ISC-enriched organoids [2]; [7]): 0.030; SSMD.LYZ.S (ISC-enriched organoids [2]; [8]): −0.147; SSMD.LYZ.NS (ISC-enriched organoids [3]; [5]): 0.371; SSMD.LYZ.NS (ISC-enriched organoids [3]; [6]): 0.452; SSMD.LYZ.NS (ISC-enriched organoids [3]; [7]): −0.012; SSMD.LYZ.NS (ISC-enriched organoids [3]; [8]): −0.250
CN(C)C(=O)c1ccc(S(=O)(=O)c2ccc(NC(=O)[C@@](C)(O)C(F)(F)F)c(Cl)c2)cc1 [AZD7545] | – | – | – | – | – | – | – | – | – | – | – | – | – | – | – | – | – | – | – | – | Dose.FC.CTG (ISC-enriched organoids [1]; dose 0.08 uM, ENR+CD 6 days): −0.334 log 2 fold change; Z.CTG (ISC-enriched organoids [1]; [9]): −0.798; Dose.FC.CTG (ISC-enriched organoids [1]; dose 0.40 uM, ENR+CD 6 days): −0.158 log 2 fold change; Z.CTG (ISC-enriched organoids [1]; [10]): −0.378; Dose.FC.CTG (ISC-enriched organoids [1]; dose 2.00 uM, ENR+CD 6 days): −0.255 log 2 fold change; Z.CTG (ISC-enriched organoids [1]; [11]): −0.608; Dose.FC.CTG (ISC-enriched organoids [1]; dose 10.00 uM, ENR+CD 6 days): −0.350 log 2 fold change; Z.CTG (ISC-enriched organoids [1]; [12]): −0.836; Dose.FC.LYZ.S (ISC-enriched organoids [2]; dose 0.08 uM, ENR+CD 6 days): 0.111 log 2 fold change; Dose.FC.LYZ.S (ISC-enriched organoids [2]; dose 0.40 uM, ENR+CD 6 days): −0.017 log 2 fold change; Dose.FC.LYZ.S (ISC-enriched organoids [2]; dose 2.00 uM, ENR+CD 6 days): −0.148 log 2 fold change; Dose.FC.LYZ.S (ISC-enriched organoids [2]; dose 10.00 uM, ENR+CD 6 days): −0.104 log 2 fold change; Dose.FC.LYZ.NS (ISC-enriched organoids [3]; dose 0.08 uM, ENR+CD 6 days): 0.087 log 2 fold change; Z.LYZ.NS (ISC-enriched organoids [3]; [9]): 0.758; Dose.FC.LYZ.NS (ISC-enriched organoids [3]; dose 0.40 uM, ENR+CD 6 days): −0.028 log 2 fold change; Z.LYZ.NS (ISC-enriched organoids [3]; [10]): −0.245; Dose.FC.LYZ.NS (ISC-enriched organoids [3]; dose 2.00 uM, ENR+CD 6 days): −0.018 log 2 fold change; Z.LYZ.NS (ISC-enriched organoids [3]; [11]): −0.155; Dose.FC.LYZ.NS (ISC-enriched organoids [3]; dose 10.00 uM, ENR+CD 6 days): −0.051 log 2 fold change; Z.LYZ.NS (ISC-enriched organoids [3]; [12]): −0.441
